Measured values published in US8779195B2, “Polyamine derivatives” (Nihon University, priority 2006, dated 2014).
Structures can show the parent of a compound that is named as a salt. Where two headings read alike, the source gives them in different places.

Columns and labels:
[1] = cytotoxicity test, Alamar blue assay; assay type: cell-based; settings: human, 24 hours exposure, read-out: IC50 (concentration at which respiratory activity is 50%)
Method: A cytotoxicity test was carried out with respect to TsPD, TsPDG, TsSPMG, BsPDG and Tosyl-SPM. Also in this test, Dansyl-SPM was used in a comparative example.
SH-SY5Y neuroblastoma cell line was purchased from the American Type Culture Collection. The cells were cultured in a D-MEM medium to which penicillin (100 U/ml), streptomycin (100 U/ml) and inactivated fetal bovine serum (Gibco) were added. The cells were maintained in a CO2 incubator at 37° C. and kept under the condition of 95% air and 5% CO2.
Undifferentiated SH-SY5Y cells were exposed to various concentrations of polyamine derivatives for 24 hours. An Alamar blue stock solution was transferred to a 96 well plate. The final assay volume was set at 100 μl/well and the final concentration of the Alamar blue was set at 10%. Six hours later, reduced Alamar blue was measured at a wavelength of 570 nm (FIG. 3). A survival rate (%) of the cells exposed to a polyamine derivative for 24 hours was expressed by a relative value of respiratory activity of the cells based on respiratory activity (100%) of mitochondria of the cells to which no drug is added.

[2] = system: Rat hippocampal primary culture cells; experiment: protective effect against nerve cell death induced by NMDA (lactate dehydrogenase release); assay type: cell-based; settings: NMDA exposure one hour, LDH release after 24 hours
Method: (§1) Next, the protective effect of polyamine derivatives against nerve cell death due to excitotoxicity was investigated. Rat hippocampal primary culture cells were cultured for seven days and exposed to glutamate or NMDA for one hour. Nerve cell death induced in this manner was evaluated based on lactate dehydrogenase release after 24 hours as an index, significant cell death was observed. In addition, it was observed that nerve cell death caused by glutamate and NMDA exposure has concentration dependency.

[3] = system: mouse convulsion induced by NMDA; experiment: suppression of NMDA-induced convulsion in mouse (permeability through the blood brain barrier); assay type: in vivo
Method: Polyamine derivatives according to the present invention were evaluated for permeability through the blood brain barrier.
When 100 mg/kg NMDA was injected into a mouse abdominal cavity, convulsion is induced several minutes later. Then, the convulsion suppression effect of a polyamine derivative on mouse convulsion induced by NMDA was investigated.
When 0.5 mg/kg TsPDG and BsPDG were intravenously administered into a mouse 30 minutes before NMDA injection, the time of convulsion induced by NMDA was reduced by 43% and 39%. This reduction rate of convulsion time was equivalent to that (38%) when 10 mg/kg memantine intravenously administered.

NMDA receptor NR1/NR2A = NMDA receptor NR1/NR2A (Rattus norvegicus, UniProt P35439+Q00959); experiment: two-electrode voltage clamp, NMDA receptor activity inhibition in Xenopus oocytes (NR1/NR2A); assay type: cell-based
Method: (§2) To confirm pharmacological function of TsPD, TsPDG, TsSPMG, BsPDG, and Tosyl-SPM synthesized above (synthesized by the method described in Patent Document 1 mentioned above), the effect of these compounds on NMDA receptor was measured by a two-electrode voltage clamp method.
(§3) This method can be carried out in accordance with the method of Masuko et al. (Masuko T. et al., Mol. Pharmacol. 55: 957-969 (1999); Masuko T. et al., Nuerosci. Lett. 371: 30-33 (2004); Masuko T. et al., Chem. Pharm. Bull. 53 (4) 444-447 (2005)). To the oocyte, cRNAs of an NR1 subunit and an NR2 subunit of NMDA receptor were injected in a ratio of 1:5 (NR1: 0.1 to 4 ng, NR2: 0.5 to 20 ng) to obtain the oocyte in which NMDA receptor was expressed.
(§4) The oocytes were cultured in a medium (96 mM NaCl, 2 mM KCl, 1 mM MgCl2, 1.8 mM CaCl2, 5 mM Na-HEPES, 2.5 mM sodium pyruvate, 50 μg/ml gentamicin, pH=7.5) at 19° C. for 1 to 3 days.
(§5) At the measurement date, K^+-BAPTA was injected in the oocytes and then, the activity of the receptors was measured by the two-electrode voltage clamp method (described later) using a recording buffer (96 mM NaCl, 2 mM KCl, 1.8 mM BaCl2, 10 mM Na-HEPES, pH=7.5).
(§6) Note that there is a single type of gene in NR1 and 4 types of genes, namely NR2A to NR2D, in NR2. There are NR1/NR2A, NR1/NR2B, NR1/NR2C and NR1/NR2D subtypes in NMDA receptor. However, NR1/NR2A and NR1/NR2B subtypes are conceivably present widely in the brain. Therefore, the activity inhibitory effects on these two types were measured in the following experiments.
(§7) The two-electrode voltage clamp method was carried out in accordance with the method of Williams et al. (Williams, K. et al., Mol. Pharmacol 38: 85-108). The current flowing through the entire membrane of the oocyte was measured by an amplifier CEZ-1250 (Nihon Kohden Corporation) for the two-electrode voltage clamp method. The electrode was filled with 3M potassium chloride and the resistance was set at 0.4 to 4 MΩ. In measurement, glutamate and glycine were added as NMDA agonists.
(§8) To the oocytes obtained by the aforementioned method, various concentrations of TsPD, TsPDG, TsSPMG, BsPDG and Tosyl-SPM were added. The activity inhibitory effect on […] subtypes was measured at a fixed voltage (Vh) of −70 mV (resting membrane potential).
(§9) As a comparative example, the same measurement is performed by use of Dansyl-SPM represented by the aforementioned formula (III).
(§10) Values obtained from 4 to 5 oocytes were averaged. The average value±S.E.M. was regarded as a measurement value.

[4] = system: Rat hippocampal primary culture cells; experiment: protective effect against nerve cell death induced by glutamate (lactate dehydrogenase release); assay type: cell-based; settings: glutamate exposure one hour, LDH release after 24 hours
Method: as §1

NMDA receptor NR1/NR2B = NMDA receptor NR1/NR2B (Rattus norvegicus, UniProt P35439+Q00960); experiment: two-electrode voltage clamp, NMDA receptor activity inhibition in Xenopus oocytes (NR1/NR2B); assay type: cell-based
Method: as §2, §3, §4, §5, §6, §7, §8, §9, §10

NMDA receptor = settings: read-out: IC50 of memantine (NMDA receptor); cited from earlier work
[5] = 0.5 mg/kg intravenously 30 minutes before 100 mg/kg NMDA i.p.
[6] = Xenopus oocytes, Vh -70 mV, glutamate and glycine as agonists, mean ± S.E.M. of 4 to 5 oocytes, read-out: IC50 NR1/NR2A
[7] = Xenopus oocytes, Vh -70 mV, glutamate and glycine as agonists, mean ± S.E.M. of 4 to 5 oocytes, read-out: IC50 NR1/NR2B
[8] = undifferentiated SH-SY5Y neuroblastoma cells

NMDA receptor NR1/NR2B, sequence (Q00960 27-1482, other chains not shown): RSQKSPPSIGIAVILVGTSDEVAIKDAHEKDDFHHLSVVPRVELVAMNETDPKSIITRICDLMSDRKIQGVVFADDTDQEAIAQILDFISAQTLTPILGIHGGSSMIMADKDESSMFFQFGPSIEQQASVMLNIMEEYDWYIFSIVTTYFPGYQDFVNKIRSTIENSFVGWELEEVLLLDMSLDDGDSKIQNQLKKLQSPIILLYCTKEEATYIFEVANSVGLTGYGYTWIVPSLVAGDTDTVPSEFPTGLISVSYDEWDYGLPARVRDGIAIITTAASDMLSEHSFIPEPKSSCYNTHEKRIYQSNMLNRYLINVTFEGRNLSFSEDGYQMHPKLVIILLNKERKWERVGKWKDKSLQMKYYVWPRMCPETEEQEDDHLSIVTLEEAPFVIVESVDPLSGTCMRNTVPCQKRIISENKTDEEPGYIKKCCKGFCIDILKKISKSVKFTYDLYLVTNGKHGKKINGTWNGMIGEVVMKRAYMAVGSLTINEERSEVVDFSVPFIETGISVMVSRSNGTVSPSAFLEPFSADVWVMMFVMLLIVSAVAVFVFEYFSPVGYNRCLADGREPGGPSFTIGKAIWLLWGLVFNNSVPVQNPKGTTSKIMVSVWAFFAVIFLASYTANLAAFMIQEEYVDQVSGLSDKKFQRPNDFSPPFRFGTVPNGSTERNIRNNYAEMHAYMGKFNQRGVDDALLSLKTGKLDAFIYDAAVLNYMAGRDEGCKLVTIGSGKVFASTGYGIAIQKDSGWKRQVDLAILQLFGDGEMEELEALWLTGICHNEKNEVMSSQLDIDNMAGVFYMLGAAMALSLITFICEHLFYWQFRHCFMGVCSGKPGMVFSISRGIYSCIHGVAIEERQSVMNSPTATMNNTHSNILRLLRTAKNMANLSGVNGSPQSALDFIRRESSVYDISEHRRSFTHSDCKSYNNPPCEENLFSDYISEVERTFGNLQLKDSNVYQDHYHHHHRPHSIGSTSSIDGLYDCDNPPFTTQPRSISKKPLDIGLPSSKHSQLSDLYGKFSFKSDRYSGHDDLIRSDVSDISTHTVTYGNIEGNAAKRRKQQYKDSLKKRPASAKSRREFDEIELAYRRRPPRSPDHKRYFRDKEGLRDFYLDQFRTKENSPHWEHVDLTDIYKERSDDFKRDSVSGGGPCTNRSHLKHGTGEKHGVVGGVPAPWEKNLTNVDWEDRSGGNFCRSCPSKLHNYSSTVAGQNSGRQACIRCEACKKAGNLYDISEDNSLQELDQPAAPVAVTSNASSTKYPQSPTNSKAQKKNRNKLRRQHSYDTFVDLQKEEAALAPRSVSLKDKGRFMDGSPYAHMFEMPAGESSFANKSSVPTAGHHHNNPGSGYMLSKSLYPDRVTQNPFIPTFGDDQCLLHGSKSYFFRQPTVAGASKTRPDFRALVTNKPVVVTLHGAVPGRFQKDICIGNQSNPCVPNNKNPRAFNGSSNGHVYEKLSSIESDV
NMDA receptor NR1/NR2A, sequence (Q00959 23-1464, other chains not shown): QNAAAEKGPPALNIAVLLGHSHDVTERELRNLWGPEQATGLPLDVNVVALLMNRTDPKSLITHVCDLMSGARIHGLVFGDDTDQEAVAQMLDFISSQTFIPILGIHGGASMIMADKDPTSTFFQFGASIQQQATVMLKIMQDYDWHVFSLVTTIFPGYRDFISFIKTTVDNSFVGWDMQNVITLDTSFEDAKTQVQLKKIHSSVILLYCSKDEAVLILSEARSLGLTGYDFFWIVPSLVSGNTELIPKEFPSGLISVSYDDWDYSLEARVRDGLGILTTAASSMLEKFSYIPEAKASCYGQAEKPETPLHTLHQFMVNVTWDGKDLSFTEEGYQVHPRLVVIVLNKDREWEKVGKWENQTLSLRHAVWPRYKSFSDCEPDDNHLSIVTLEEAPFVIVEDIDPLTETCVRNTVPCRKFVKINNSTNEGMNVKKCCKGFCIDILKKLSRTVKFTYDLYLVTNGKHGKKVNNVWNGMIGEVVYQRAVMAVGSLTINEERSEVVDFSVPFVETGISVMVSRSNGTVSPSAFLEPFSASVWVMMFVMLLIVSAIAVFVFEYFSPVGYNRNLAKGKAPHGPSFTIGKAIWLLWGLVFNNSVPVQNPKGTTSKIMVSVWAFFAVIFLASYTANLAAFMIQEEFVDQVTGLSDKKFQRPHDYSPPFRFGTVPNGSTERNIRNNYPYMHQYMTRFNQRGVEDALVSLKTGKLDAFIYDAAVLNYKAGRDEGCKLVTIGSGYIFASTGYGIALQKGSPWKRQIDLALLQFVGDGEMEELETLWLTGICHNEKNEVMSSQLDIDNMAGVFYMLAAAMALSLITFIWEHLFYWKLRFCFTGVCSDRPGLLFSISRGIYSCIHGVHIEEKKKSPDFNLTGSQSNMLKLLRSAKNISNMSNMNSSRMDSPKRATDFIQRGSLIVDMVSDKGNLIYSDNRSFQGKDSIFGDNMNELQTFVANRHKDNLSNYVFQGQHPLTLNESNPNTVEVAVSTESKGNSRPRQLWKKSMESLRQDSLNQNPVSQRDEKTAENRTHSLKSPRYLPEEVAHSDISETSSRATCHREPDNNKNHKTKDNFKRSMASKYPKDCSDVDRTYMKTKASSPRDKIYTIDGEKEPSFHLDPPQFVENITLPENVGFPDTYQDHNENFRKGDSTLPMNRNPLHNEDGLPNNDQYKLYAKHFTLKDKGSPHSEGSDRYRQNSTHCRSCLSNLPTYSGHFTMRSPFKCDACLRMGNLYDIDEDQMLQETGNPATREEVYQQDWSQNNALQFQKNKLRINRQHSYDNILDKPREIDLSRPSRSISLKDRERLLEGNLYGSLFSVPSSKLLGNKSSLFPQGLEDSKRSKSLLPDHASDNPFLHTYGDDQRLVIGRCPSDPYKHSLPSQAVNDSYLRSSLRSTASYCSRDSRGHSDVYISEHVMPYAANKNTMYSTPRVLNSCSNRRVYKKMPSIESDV

SMILES: Cc1ccc(S(=O)(=O)NCCCCNCCCCNCCCCNC(=N)N)cc1 [TsPDG]
- IC50 at 24 h ([1]; undifferentiated SH-SY5Y cells): 2870 ± 66 µM
- suppression of nerve cell death induced by NMDA ([2]; 1 μM compound): completely suppressed
- reduction of the time of convulsion induced by NMDA [3, 5]: 43%
- IC50 (NMDA receptor NR1/NR2A): 0.017 ± 0.002 µM
- suppression of nerve cell death induced by glutamate ([4]; 1 μM compound): significantly suppressed
- IC50 (NMDA receptor NR1/NR2B): 0.027 ± 0.002 µM

SMILES: CCCCS(=O)(=O)NCCCCNCCCCNCCCCNC(=N)N [BsPDG]
- IC50 at 24 h ([1]; undifferentiated SH-SY5Y cells): > 3000 µM
- suppression of nerve cell death induced by NMDA ([2]; 1 μM compound): completely suppressed
- reduction of the time of convulsion induced by NMDA [3, 5]: 39%
- IC50 (NMDA receptor NR1/NR2A; [6]): 0.015 ± 0.001 µM
- suppression of nerve cell death induced by glutamate ([4]; 1 μM compound): significantly suppressed
- IC50 (NMDA receptor NR1/NR2B; [7]): 0.024 ± 0.003 µM

SMILES: Cc1ccc(S(=O)(=O)NCCCNCCCCNCCCNC(=N)N)cc1 [TsSPMG]
- IC50 at 24 h ([1]; undifferentiated SH-SY5Y cells): 2640 ± 37 µM
- IC50 (NMDA receptor NR1/NR2A; [6]): 0.32 ± 0.03 µM
- IC50 (NMDA receptor NR1/NR2B; [7]): 0.37 ± 0.05 µM

SMILES: CN(C)c1cccc2c(S(=O)(=O)NCCCNCCCCNCCCN)cccc12 [Dansyl-SPM, N^1-Dansyl-Spermine, reference compound]
- IC50 at 24 h [1, 8]: 30 ± 1 µM
- IC50 (NMDA receptor NR1/NR2A; [6]): 0.27 ± 0.03 µM
- IC50 (NMDA receptor NR1/NR2B; [7]): 0.31 ± 0.03 µM

SMILES: Cc1ccc(S(=O)(=O)NCCCNCCCCNCCCN)cc1 [Tosyl-SPM, N^1-Tosyl-Spermine, reference compound]
- IC50 at 24 h [1, 8]: 336 ± 7 µM
- IC50 (NMDA receptor NR1/NR2A; [6]): 0.35 ± 0.01 µM
- IC50 (NMDA receptor NR1/NR2B; [7]): 0.4 ± 0.01 µM

SMILES: Cc1ccc(S(=O)(=O)NCCCCNCCCCNCCCCN)cc1 [TsPD]
- IC50 at 24 h ([1]; undifferentiated SH-SY5Y cells): 1830 ± 46 µM
- suppression of nerve cell death induced by NMDA ([2]; 10 μM compound): completely suppressed
- IC50 (NMDA receptor NR1/NR2A; [6]): 0.074 ± 0.003 µM
- suppression of nerve cell death induced by glutamate ([4]; 10 μM compound): significantly suppressed
- IC50 (NMDA receptor NR1/NR2B; [7]): 0.15 ± 0.001 µM

SMILES: CC12CC3CC(C)(C1)CC(N)(C3)C2 [memantine, memantine hydrochloride, reference compound]
- reduction of the time of convulsion induced by NMDA ([3]; 10 mg/kg intravenously): 38%
- IC50 (NMDA receptor): 1 µM
